Assay [1] addresses T1, recombinant human FLAP protein (Homo sapiens, UniProt P20292).
T1 construct: made in house; host or cells: Sf9 insect cells (100,000×g membrane pellet used)
T1 sequence (P20292 1-161): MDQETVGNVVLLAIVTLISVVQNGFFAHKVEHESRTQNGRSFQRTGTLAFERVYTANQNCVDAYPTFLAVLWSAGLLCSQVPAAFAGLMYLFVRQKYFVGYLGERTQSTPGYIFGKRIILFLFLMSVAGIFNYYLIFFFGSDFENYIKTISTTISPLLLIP
Description: FLAP binding assay (SPA, displacement of [125I]L-691,831). Conditions: membranes of sf9 cells expressing recombinant human FLAP; [125I]L-691,831 probe; read-out: FLAP binding IC50. The gist of the method:
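Membranes from sf9 cells expressing human FLAP in pH 7.5 Tris buffer (MgCl2, EDTA, PMSF). Non-specific binding defined with 10 μM cold L-691,831.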

Assay [2] relates to synthesis of LTB4 in human whole blood. As to the kind of experiment: Human whole blood assay (inhibition of LTB4 synthesis, calcimycin stimulated). It is filed as cell-based. Conditions: heparinized human whole blood, calcimycin 20 μM, plasma LTB4. In outline: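 Whole-blood cellular format, heparinized human donors: 15 min compound pretreatment, then 30 min calcimycin stimulation (20 μM final), both at 37° C. Low-speed centrifugation yields plasma, in which LTB4 is read by homogeneous time-resolved fluorescence immunoassay.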

Take `C[C@@](c1ccc(-c2cnc(N)nc2)cc1)(c1noc(-c2cnn(C3CC3)c2)n1)C1CC1` [Example 271, 5-(4-{(R)-1-Cyclopropyl-1-[5-(1-cyclopropyl-1H-pyrazol-4-yl)-[1,2,4]oxadiazol-3-yl]-ethyl}-phenyl)-pyrimidin-2-ylamine]: the IC50 in assay [1] turned out to be 4.9 nM; in assay [2], 51 nM.

As for `CC(C)C(C)(c1ccc(-c2cnc(N)nc2)cc1)c1noc(N2CCN(CC(=O)O)CC2)n1` (stereo not drawn) [Example 272, [4-(3-{1-[4-(2-Amino-pyrimidin-5-yl)-phenyl]-1,2-dimethyl-propyl}-[1,2,4]oxadiazol-5-yl)-piperazin-1-yl]-acetic acid], the IC50 is 280 nM in assay [1] and over 5000 nM in assay [2].

Regarding `Cn1cc(-c2nc(C(C)(c3ccc(-c4cnc5[nH]ccc5n4)cc3)C3CC3)no2)cn1` (stereo not drawn) [Example 273, 2-(4-{1-Cyclopropyl-1-[5-(1-methyl-1H-pyrazol-4-yl)-[1,2,4]oxadiazol-3-yl]-ethyl}-phenyl)-5H-pyrrolo[2,3-b]pyrazine], the IC50 is 6.1 nM in assay [1] and 56 nM in assay [2].

`CC(c1ccc(-c2cnc(N)nc2)cc1)(c1noc(N2CC(O)C2)n1)C1CC1` (stereo not drawn) [Example 274, 1-(3-{1-[4-(2-Amino-pyrimidin-5-yl)-phenyl]-1-cyclopropyl-ethyl}-[1,2,4]oxadiazol-5-yl)-azetidin-3-ol]: the IC50 in assay [1] was determined as 40 nM; in assay [2], 200 nM.

As to `CN(C)C(=O)Cn1cc(-c2nc(C(C)(c3ccc(-c4cnc(N)nc4F)cc3)C3CC3)no2)cn1` (stereo not drawn) [Example 275, 2-[4-(3-{1-[4-(2-Amino-4-fluoro-pyrimidin-5-yl)-phenyl]-1-cyclopropyl-ethyl}-[1,2,4]oxadiazol-5-yl)-pyrazol-1-yl]-N,N-dimethyl-acetamide], the IC50 was determined as 11 nM in assay [1] and 220 nM in assay [2].

For the compound `CC1(O)CN(c2nc(C(C)(c3ccc(-c4cnc(N)nc4)cc3)C3CC3)no2)C1` (stereo not drawn) [Example 276, 1-(3-{1-[4-(2-Amino-pyrimidin-5-yl)-phenyl]-1-cyclopropyl-ethyl}-[1,2,4]oxadiazol-5-yl)-3-methyl-azetidin-3-ol], the IC50 amounted to 28 nM in assay [1] and 260 nM in assay [2].

Regarding `CN(C)C(=O)Cn1cc(-c2nc(C(C)(c3ccc(-c4ccc(F)nc4N)cc3)C3CC3)no2)cn1` (stereo not drawn) [Example 277, 2-[4-(3-{1-[4-(2-Amino-6-fluoro-pyridin-3-yl)-phenyl]-1-cyclopropyl-ethyl}-[1,2,4]oxadiazol-5-yl)-pyrazol-1-yl]-N,N-dimethyl-acetamide], the IC50 in assay [1] is 64 nM; in assay [2], over 5000 nM.

`CN(C)C(=O)Cn1cc(-c2nc(C(C)(c3ccc(-c4ccc(N)nc4F)cc3)C3CC3)no2)cn1` (stereo not drawn) [Example 278, 2-[4-(3-{1-[4-(6-Amino-2-fluoro-pyridin-3-yl)-phenyl]-1-cyclopropyl-ethyl}-[1,2,4]oxadiazol-5-yl)-pyrazol-1-yl]-N,N-dimethyl-acetamide]: the IC50 was 5 nM in assay [1] and 150 nM in assay [2].

Consider `CC(C)Nc1ncc(-c2ccc([C@](C)(c3noc(-c4cnn(CC(=O)N(C)C)c4)n3)C3CC3)cc2)cn1` [Example 279, 2-[4-(3-{(R)-1-Cyclopropyl-1-[4-(2-isopropylamino-pyrimidin-5-yl)-phenyl]-ethyl}-[1,2,4]oxadiazol-5-yl)-pyrazol-1-yl]-N,N-dimethyl-acetamide], for which the figures for the IC50 in assay [1] and in assay [2] were 76 nM and over 5000 nM, respectively.

For `CNc1ccc(-c2ccc([C@](C)(c3noc(-c4cnn(CC(=O)N(C)C)c4)n3)C3CC3)cc2)cn1` [Example 280, 2-[4-(3-{(R)-1-Cyclopropyl-1-[4-(6-methylamino-pyridin-3-yl)-phenyl]-ethyl}-[1,2,4]oxadiazol-5-yl)-pyrazol-1-yl]-N,N-dimethyl-acetamide], the 50% inhibitory concentration (IC50) in assay [1] amounted to 3 nM; in assay [2] it was 35 nM.

For the compound `CN(C)C(=O)Cn1cc(-c2nc([C@@](C)(c3ccc(-c4cnc(N)c(C(F)(F)F)c4)cc3)C3CC3)no2)cn1` [Example 281, 2-[4-(3-{(R)-1-[4-(6-Amino-5-trifluoromethyl-pyridin-3-yl)-phenyl]-1-cyclopropyl-ethyl}-[1,2,4]oxadiazol-5-yl)-pyrazol-1-yl]-N,N-dimethyl-acetamide], the IC50 in assay [1] turned out to be 5 nM; in assay [2] it was 160 nM.

Regarding `C[C@@](c1ccc(-c2ccc(N)nc2)cc1)(c1noc(N2CCC(O)CC2)n1)C1CC1` [Example 282, 1-(3-{(R)-1-[4-(6-Amino-pyridin-3-yl)-phenyl]-1-cyclopropyl-ethyl}-[1,2,4]oxadiazol-5-yl)-piperidin-4-ol], the IC50 worked out at 6.5 nM in assay [1] and 44 nM in assay [2].

Regarding `C[C@](c1ccc(-c2ccc(N)nc2)cc1)(c1noc(N2CCC(O)CC2)n1)C1CC1` [Example 283, 1-(3-{(S)-1-[4-(6-Amino-pyridin-3-yl)-phenyl]-1-cyclopropyl-ethyl}-[1,2,4]oxadiazol-5-yl)-piperidin-4-ol], the IC50 came to 16 nM in assay [1] and 920 nM in assay [2].

As to `CN(C)C(=O)Cn1cc(-c2nc([C@@](C)(c3ccc(-c4cnc5c(c4)CCN5)cc3)C3CC3)no2)cn1` [Example 284, 2-[4-(3-{(R)-1-Cyclopropyl-1-[4-(2,3-dihydro-1H-pyrrolo[2,3-b]pyridin-5-yl)-phenyl]-ethyl}-[1,2,4]oxadiazol-5-yl)-pyrazol-1-yl]-N,N-dimethyl-acetamide], the results for the IC50 in assay [1] and in assay [2] were 4.7 nM and 200 nM, respectively.

Turning to `Cc1nc(N)cnc1-c1ccc([C@](C)(c2noc(-c3cnn(CC(=O)N(C)C)c3)n2)C2CC2)cc1` [Example 285, 2-[4-(3-{(R)-1-[4-(5-Amino-3-methyl-pyrazin-2-yl)-phenyl]-1-cyclopropyl-ethyl}-[1,2,4]oxadiazol-5-yl)-pyrazol-1-yl]-N,N-dimethyl-acetamide], the figures for the IC50 in assay [1] and in assay [2] were 7 nM and 190 nM, respectively.

With `COc1cncc(-c2ccc(C(C)(c3noc(-c4cnn(C)c4)n3)C3CC3)cc2)c1` (stereo not drawn) [Example 286, 3-(4-{1-Cyclopropyl-1-[5-(1-methyl-1H-pyrazol-4-yl)-[1,2,4]oxadiazol-3-yl]-ethyl}-phenyl)-5-methoxy-pyridine], the figures for the IC50 in assay [1] and in assay [2] were 16 nM and 2100 nM, respectively.

Take `CC(c1ccc(-c2cnc(N)nc2)cc1)(c1noc(N2CCC[C@@H](O)C2)n1)C1CC1` (stereo partly drawn) [Example 287, (R)-1-(3-{1-[4-(2-Amino-pyrimidin-5-yl)-phenyl]-1-cyclopropyl-ethyl}-[1,2,4]oxadiazol-5-yl)-piperidin-3-ol]: the IC50 in assay [1] is 7 nM; in assay [2], 150 nM.

Turning to `CC(c1ccc(-c2cnc(N)nc2)cc1)(c1noc(N2CCC[C@H](O)C2)n1)C1CC1` (stereo partly drawn) [Example 288, (S)-1-(3-{1-[4-(2-Amino-pyrimidin-5-yl)-phenyl]-1-cyclopropyl-ethyl}-[1,2,4]oxadiazol-5-yl)-piperidin-3-ol], the figures for the IC50 in assay [1] and in assay [2] were 2.5 nM and 200 nM, respectively.

In the case of `CN(C)C(=O)Cn1cc(-c2nc(C(C)(c3ccc(-c4cnc(N)c(C(F)(F)F)n4)cc3)C3CC3)no2)cn1` (stereo not drawn) [Example 289, 2-[4-(3-{1-[4-(5-Amino-6-trifluoromethyl-pyrazin-2-yl)-phenyl]-1-cyclopropyl-ethyl}-[1,2,4]oxadiazol-5-yl)-pyrazol-1-yl]-N,N-dimethyl-acetamide], the IC50 in assay [1] turned out to be 22 nM; in assay [2], 1000 nM.

Turning to `Cn1cc(-c2nc(C(C)(c3ccc(-c4cncc(OCc5ccccc5)c4)cc3)C3CC3)no2)cn1` (stereo not drawn) [Example 290, 3-Benzyloxy-5-(4-{1-cyclopropyl-1-[5-(1-methyl-1H-pyrazol-4-yl)-[1,2,4]oxadiazol-3-yl]-ethyl}-phenyl)-pyridine], the figures for the IC50 in assay [1] and in assay [2] were 22 nM and 2000 nM, respectively.

Take `CN(C)C(=O)Cn1cc(-c2nc([C@@](C)(c3ccc(-c4cnc(N)c(F)c4)cc3)C3CC3)no2)cn1` [Example 291, 2-[4-(3-{(R)-1-[4-(6-Amino-5-fluoro-pyridin-3-yl)-phenyl]-1-cyclopropyl-ethyl}-[1,2,4]oxadiazol-5-yl)-pyrazol-1-yl]-N,N-dimethyl-acetamide]: the IC50 in assay [1] worked out at 4.5 nM; in assay [2], 89 nM.

As for `Cc1nc(N)ccc1-c1ccc([C@](C)(c2noc(-c3cnn(CC(=O)N(C)C)c3)n2)C2CC2)cc1` [Example 292, 2-[4-(3-{(R)-1-[4-(6-Amino-2-methyl-pyridin-3-yl)-phenyl]-1-cyclopropyl-ethyl}-[1,2,4]oxadiazol-5-yl)-pyrazol-1-yl]-N,N-dimethyl-acetamide], the IC50 in assay [1] was found to be 8.5 nM; in assay [2], 150 nM.

Turning to `CN(C)C(=O)Cn1cc(-c2nc([C@@](C)(c3ccc(-c4cnc(N)nc4F)cc3)C3CC3)no2)cn1` [Example 293, 2-[4-(3-{(R)-1-[4-(2-Amino-4-fluoro-pyrimidin-5-yl)-phenyl]-1-cyclopropyl-ethyl}-[1,2,4]oxadiazol-5-yl)-pyrazol-1-yl]-N,N-dimethyl-acetamide], the IC50 in assay [1] came to 3.5 nM; in assay [2], 110 nM.

Turning to `CN(C)C(=O)Cn1cc(-c2nc([C@@](C)(c3ccc(-c4cnc(N)c(C#N)n4)cc3)C3CC3)no2)cn1` [Example 294, 2-[4-(3-{(R)-1-[4-(5-Amino-6-cyano-pyrazin-2-yl)-phenyl]-1-cyclopropyl-ethyl}-[1,2,4]oxadiazol-5-yl)-pyrazol-1-yl]-N,N-dimethyl-acetamide], the figures for the IC50 in assay [1] and in assay [2] were 7 nM and 200 nM, respectively.
